# Columns and labels:
# [1] = system: IL-12p40 released by the DC; assay: IL-12p40 ELISA of supernatants of DC/iNKT co-cultures; type: cell-based, human; conditions: DC/iNKT co-culture, 24 hours
# Procedure: (§1) Different analogs of α-GalCer as indicated or LPS were added to co-cultures of human DC and iNKT cells. (A) Maturation of the DC was assessed after 40 h, gating on CD11c positive cells. Histograms indicate the CD83 and CD86 profiles of DC from different treatments; the percentages indicate the percentage of CD83hi mature DC and the numbers in parenthesis, the mean fluorescence intensity of the population contained within the labeled gate. DC and iNKT cells were co-cultured in the presence of different analogs of α-GalCer for 24 hours. Supernatants were analyzed using ELISA for the presence of (B) IL-12p40 released by the DC and (C) IFN-γ from the iNKT cells. […] Cells were co-cultured in the presence of the indicated concentration of analog and the percentages of DC with increased CD83/CD80 are shown. […] Viability of α-GalCer or analog-pulsed DC was assessed after 40 h co-culture in the presence of iNKT cells by flow cytometry. Cells were stained with propidium iodide and the percentage of live CD11c gated cells remaining in the culture are shown.
# (§2) Human monocyte-derived DC were pulsed with 150 ng of different inositol analogs and co-cultured with iNKT cells for 24 h. […] Numbers indicate the mean fluorescence intensity of the histogram gated on CD11c^+ cells.
# Release of IL-12p40 (and bioactive p75) by DC is a marker of activation and is thought to play an important role in regulating the profile of the immune response generated in response to those DC (Trinchieri et al, Nat Rev Immunol, 2003, 3; 133-46).
# [2] = system: p40 form of IL-12; assay: Example A: IL-12 p40 ELISA as indication of DC stimulation; type: cell-based, human
# [3] = system: OVA specific response; assay: Example C: OVA specific CTL response in mice injected with OVA and compound (tetramer); type: in vivo; conditions: for OVA specific response: 400 μg OVA with 1 μg compound i.v.; for CTL response with MPL coinjected: coinjected with 25 μg MPL
# Procedure: Subject animals, five mice per group, received an intravenous injection of 400 μg of ovalbumin (OVA) together with 1 μg of one of the compounds of the invention under examination or an equivalent volume of PBS diluted vehicle solution. A subset of mice were injected with 25 μg of the molecule MPL (Sigma-Aldrich; extracted from Salmonella Minnesota) solubilized in PBS.
# Following the injections, blood was obtained from lateral tail veins, and PBLs were isolated, using standard methods. The PBLs were then stained, directly, […], with tetrameric, H-2 Kb/OVA 257-264, H-21 Kb complexes, following Palmowski, et al., J. Immunol., 168:4391-4398 (2002), incorporated by reference. The tetramers were prepared in accordance with Whilan, et al., J. Immunol., 163:4342-4348 (1999), incorporated by reference.
# [4] = system: DCs obtained from the spleen; assay: Example E: phenotyping of spleen DCs after tail vein injection (CD86); type: in vivo, mice; conditions: 1 μg tail vein, 24 h
# Procedure: In brief, in each experiment, 1 μg of one of a selection of compounds of the invention was injected into the tail vein of subject mice. 24 h later spleen tissue was removed from the animals and gently teased through gauze into complete medium, supplemented with 5 mM of EDTA. Cells were enriched for CD11c by anti-CD11, magnetic beads using published techniques. Once enriched, they were assayed for maturation markers using antibody staining and flow cytometry. Non-specific staining was addressed by using an antibody specific for the Fc-RIII/II receptor.
# [5] = system: Melan A-specific CD8^+ T cells; assay: Expansion of Melan-A26-35 specific CD8+ T cells in human PBMC/PBL cultures (tetramer); type: cell-based; conditions: for stimulation of antigen specific CTL responses in vitro: Example B, day 10, compared with αGal-Cer; for expansion of Melan-A26-35 specific T cells: human PBMC/PBL, FIG. 8
# Procedure: Flow cytometry of day 10-15 cultures of PBMCs co-cultured with autologous irradiated APCs, pulsed with Melan-A26-35 peptide were stained with the tetrameter and anti-CD8^+-FITC.
# In these experiments, T cell expansion was measured, by pulsing human DCs from PBLs with 100 nM of the known, immunogenic peptide MelanA26-35, […]. The peptide was added to the DCs together with syngeneic PBLs from the same donor. To detail these experiments more fully, samples of DCs were irradiated with 3000 rads followed by a 3 hour pulse with the peptide, in serum free medium.
# The cells were then washed thoroughly and incubated with autologous, PBLs, at a 1:10 ratio, in RPMI 1640/5% human serum. Recombinant human IL-2 was added at 10 U/ml from day 4 to day 7. At day 10, following the addition of the PBLs, cells were analyzed. Cultured cells were stained with anti-CD8 and A2/MelanA25-35 tetramer. The percentage of MelanA specific CD8 T cells out of total CD8 positive cells was measured by FACS analysis.
# [6] = system: IFN-γ from the iNKT cells; assay: IFN-γ ELISA of supernatants of DC/iNKT co-cultures; type: cell-based, human; conditions: analogs presented by DC
# Procedure: as §1, §2
# [7] = molecular target: T1, human invariant Vα24^+/Vβ11^+ TCR binding to hCD1d-lipid complex (Homo sapiens, UniProt P15813); assay: Surface plasmon resonance (Biacore) of soluble iNKT TCR binding to hCD1d monomers loaded with analogs; conditions: for Kd: equilibrium binding, read-out: Kd of the TCR binding to the monomer
# T1 construct: soluble human CD1d molecules; made in house
# Procedure: Affinity and kinetics of iNKT TCR binding to hCD1d complexed with α-GalCer or OCH. Increasing concentrations from 0.4 μM to 194 μM (two-fold dilution) of iNKT TCR were injected for 5 seconds over the indicated hCD1d-GSL complexes. The binding responses of 5 concentrations are shown superimposed. The panels on the right show binding response at equilibrium.
# The affinities of a soluble NKT cell TCR for human CD1d molecules refolded with different analogs of α-GalCer were measured. Equilibrium binding and kinetic measurements respectively were made for α-GalCer (A and B), threitolceramide (C and D), 4S-threitolceramide (E and F), 4R-threitolceramide (G and H). The Kd values (μM) were calculated from equilibrium binding. The Kon values shown were calculated from Koff and Kd.
# We then assessed whether the length of the acyl and sphingosine chains could affect the affinity of iNKT TCR binding to glycolipid-CD1d complex. We refolded Vα24 and Vβ11 chains of the iNKT TCR as previously described (Gadola, Koch et al, J Exp Med, 2006, 203; 699-710) and used the purified and refolded iNKT TCR in surface plasmon resonance studies against immobilized biotinylated CD1d monomers loaded with either α-GalCer or OCH.
# To characterize the affinity of analogs of α-GalCer, biotinylated hCD1d monomers were generated using previously described protocols (Karadimitris, Gadola et al, Proc Natl Acad Sci USA, 2001, 98; 3294-8) bound to the different analogs. Surface plasmon resonance (Biacore) analysis was performed using a soluble disulphide-linked human invariant Vα24^+/Vβ11^+ TCR (Gadola, Koch et al, J Exp Med, 2006, 203; 699-710) to measure the equilibrium dissociation constants (Kd) of binding of the TCR to different monomers (FIG. 3).
"koff ([7]; kinetic measurement, read-out: rate of dissociation (Koff) between the TCR and the monomer)",Structure (SMILES),IL-12p40 level relative to that seen with α-GalCer [1],"IL-12 potency, fold less potent than Compound 3 [2]",OVA specific response [3],induction of CD86 on spleen DC in vivo [4],stimulation of antigen specific CTL responses in vitro [5],IFN-γ released by the iNKT cells [6],IL-12 potency relative to αGal-Cer [2],CTL response with MPL coinjected [3],Kd [7],rate of dissociation (Koff) between the TCR and the monomer ([7]; kinetic measurement),expansion of Melan-A26-35 specific T cells ([5]; listed as threitol-ceramide),expansion of Melan-A26-35 specific T cells ([5]; listed as threitolceramide),IL-12p40 released [1]
–,"CCCCCCCCCCCCCCCCCCCCCCCCCC(=O)N[C@@H](COC[C@@H](O)CO)[C@H](O)[C@H](O)CCCCCCCCCCCCCC [Compound 2, Glycerol Ceramide]",approximately 50%,approximately 1000 fold,Enhancement was weakest,induced CD86 in vivo similarly,"more potent stimulators of antigen specific CTL responses, in vitro, than αGal-Cer",~20 ng/mL,–,–,–,–,–,–,–
–,"CCCCCCCCCCCCCCCCCCCCCCCCCC(=O)N[C@@H](COC[C@H](O)[C@@H](O)CO)[C@H](O)[C@H](O)CCCCCCCCCCCCCC [Compound 3, Threitol Ceramide]",approximately 50%,–,enhancement of the OVA specific response,did not induce the DC86 marker significantly,"more potent stimulators of antigen specific CTL responses, in vitro, than αGal-Cer",~20 ng/mL,approximately 50%,enhancement of the CTL response,5.78 µM,1.04 s⁻¹,superior than glycerol-ceramide,at least as effective as with DC pulsed with α-GalCer,–
0.37 s⁻¹,"CCCCCCCCCCCCCCCCCCCCCCCCCC(=O)N[C@@H](CO[C@H]1OC(CO)[C@H](O)C(O)C1O)[C@H](O)[C@H](O)CCCCCCCCCCCCCC (stereo partly drawn) [α-GalCer, α galactosylceramide, reference compound]",–,–,enhancement of the OVA specific response,induced CD86 in vivo similarly,–,approximately 40 ng/ml,–,enhancement of the CTL response,1.29 µM,–,–,–,significant levels of IL-12p40
